Tests used:
Full-length WT ClbP = Full-length WT ClbP (Escherichia coli, UniProt Q0P7K6); test: ClbP molecular (purified protein) enzymatic inhibition assay, fluorogenic substrate; format: biochemical, E. coli
Protocol: ClbP Molecular (Purified Protein) Assay
1) Full-length WT ClbP was thawed on ice. A diluted enzyme solution (2 nM) was made by mixing 3.57 μL of enzyme with 20 mL of reaction buffer (50 mM Tris pH 8.0, 200 mM NaCl, 0.02% (w/v) n-dodecyl-b-D-maltoside (DDM)).
2) In a 96 well plate, the diluted protein solution (73.5 μL) was mixed with inhibitor (1.5 μL, of varying concentrations, see below) and preincubated for 15 min at room temperature. Then, reaction buffer (75 μL) containing 10 μM fluorogenic substrate was added to initiate the reaction. After addition of substrate, the final concentrations were 1 nM full-length WT ClbP, 5 μM fluorogenic substrate in 50 mM Tris pH 8.0, 200 mM NaCl, 0.02% (w/v) DDM, with either 0, 0.14, 0.41, 1.2, 3.7, 11, 33, or 100 μM inhibitor. For all conditions, the DMSO carryover was 2% (v/v) at the preincubation stage and 1% in the reaction stage. Compound No. III was always present as a control in each plate, and all compounds were tested in singlicate. In previous assays, the Km of the fluorogenic substrate was determined to be approximately 5 μM.
3) Immediately after addition of substrate to enzyme, the plate was transferred into a spectrophotometer held at room temperature. The fluorescence was recorded every 1.5 min for 15 min. The excitation wavelength was 360 nm (20 nm bandwidth), the emission wavelength was 440 nm (20 nm bandwidth), the optics position was bottom, the gain was extended, the light source was a xenon flash lamp, and the read speed was normal.
(§1) 4) The linear portion of the fluorescence increase is at least from 0-6 min, so this time regime is used. The rate of fluorescence increase (A.U./min) for each well in an inhibitor series was normalized to the 0 μM inhibitor condition. The normalized activity as a function of inhibitor concentration was then fit to a three parameter IC50 curve in Graphpad Prism.
(§2) “A” indicates an IC50 value less than 100 μM, “B” indicates an IC50 between 100 and 300 μM, “C” indicates an IC50 above 300 μM.

ClbP [1] = biological target: T1, ClbP (Escherichia coli, UniProt Q0P7K6); test: ClbP cell lysate activity (inhibition) assay, fluorogenic substrate; format: biochemical; settings: ClbP Lysate Inhibition Assay: IC50, E. coli ClbP+ lysozyme-EDTA lysates, 5 μM fluorogenic substrate, inhibitor 0-300 μM, 37° C., singlicate
Protocol: Cell Lysate Activity Assay
(§3) 1) E. coli ClbP+ were taken from a frozen stock and streaked onto BHI plates. They were grown aerobically at 37° C. overnight in the incubator.
(§4) 1) A single colony was selected from the plate and inoculated into 30 mL LB in a 50 mL conical vial eight times (240 mL total). The bacteria were grown aerobically overnight (16-20 h) at 37° C. on a nutator with rocking.
1) The saturated overnight culture was centrifuged to create a firm pellet (3,200 g, 10 min, 4° C.). The supernatant was removed and then the pellet was resuspended in 30 mL sterile PBS.
2) The bacteria were centrifuged again (3,200 g, 10 min, 4° C.). The supernatant was removed, and the pellet was resuspended in sterile PBS buffer (3 mL) in each 8 tubes to make a tenfold concentrated bacterial solution.
3) A lysozyme-EDTA (LE) solution was made in ddH2O (0.05 mg/mL lysozyme, 0.25 M EDTA).
4) For each of the eight tubes, LE solution (3 mL) was mixed with concentrated bacterial solution (3 mL). This mixture was incubated at 37° C. for 30 min to generate the lysates.
5) The lysates (192 μL) were mixed with inhibitor (6 μL, final concentration was 300, 100, 33.3, 11.1, 3.7, 1.2, 0.4, or 0 μM). Fluorogenic substrate (2 μL, final concentration 5 μM) was immediately added across the plate to initiate the reaction. As a control, each plate contained Compound No. III in this dose response curve. The final concentration of bacterial lysates was fivefold concentrated compared to the original saturated overnight culture. Carryover from DMSO was 4% (v/v). All compounds were tested in singlicate.
(§5) 6) The plate was loaded into a spectrophotometer preheated to 37° C. The fluorescence was recorded every 2 min for 46 min. The excitation wavelength was 360 nm (20 nm bandwidth), the emission wavelength was 460 nm (20 nm bandwidth), the optics position was bottom, the gain was 65, the light source was a tungsten bulb, and the read speed was normal.
as §1, with “7)” for “4)”, “was 0-20 min.” for “is at least from 0-6 min, so this time regime is used.”
as §2

ClbP [2] = biological target: T1, ClbP; test: ClbP whole cell activity (inhibition) assay, fluorogenic substrate; format: cell-based, E. coli
Protocol: Whole Cell Activity Assay
as §3, §4
1) The saturated overnight culture was centrifuged to create a firm pellet (3,200 g, 10 min, 4° C.). In a biosafety cabinet, the supernatant was removed and then the pellet was resuspended in 30 mL sterile PBS.
2) The bacteria were centrifuged again (3,200 g, 10 min, 4° C.). The supernatant was removed, and the pellet was resuspended in sterile PBS buffer (6 mL) in each of the 8 tubes. This fivefold concentrated bacterial solution was the working solution.
3) The bacterial working solution (192 μL) was mixed with inhibitor (6 μL, final concentration was 300, 100, 33.3, 11.1, 3.7, 1.2, 0.4, or 0 μM). Fluorogenic substrate (2 μL, final concentration 5 μM) was immediately added across the plate to initiate the reaction. As a control, each plate contained Compound No. III in this dose response curve. The bacterial concentration was fivefold concentrated compared to the original saturated overnight culture. Carryover from DMSO was 4% (v/v). All compounds were tested in singlicate.
as §5, with “4)” for “6)”
as §1, with “5)” for “4)”, “was 10-30 min.” for “is at least from 0-6 min, so this time regime is used.”
as §2

Structure (SMILES) | IC50 (Full-length WT ClbP) | IC50 (ClbP [1]) | IC50 (ClbP [2])
CCCCCCCC(=O)N[C@H]1CC(=O)NC1(O)C(=O)NCc1ccccc1 (stereo partly drawn) [Compound CCLXXXIX] | < 100 µM | 100 to 300 µM | 100 to 300 µM
CCCCCCCC(=O)N[C@@H]1CC(=O)NC1(O)C(=O)NCCCC (stereo partly drawn) [Compound CCXC] | < 100 µM | < 100 µM | < 100 µM
CCCCCCCC(=O)N[C@H](CC(N)=O)c1nnn(CCc2ccccc2)n1 [Compound XVIII] | 100 to 300 µM | > 300 µM | > 300 µM
CCCCCCC(F)(F)C(=O)N[C@H](CC(N)=O)C(=O)NCCc1ccc(O)cc1 [Compound CCXXXVI] | < 100 µM | < 100 µM | > 300 µM
CCCCCCC(C)(C)C(=O)N[C@@H](CNCCc1ccccc1)CC(N)=O [Compound CCXII] | 100 to 300 µM | > 300 µM | > 300 µM
CCCCCCCC(=O)N[C@H](CC(N)=O)C(=O)NCCc1c(F)cc(O)cc1F [Compound CCCVI] | < 100 µM | < 100 µM | < 100 µM
CCCCCCCC(=O)N[C@H](CC(N)=O)C(=O)NCCn1cccn1 [Compound CCXXVIII] | < 100 µM | < 100 µM | < 100 µM
CCCCCCCC(=O)N[C@H](CC(N)=O)C(=O)NCCN1CCNCC1 [Compound CCXX] | < 100 µM | < 100 µM | < 100 µM
CCCCCCCC(=O)N[C@H](CC(N)=O)C(=O)NCCc1cccc(OC)c1 [Compound CCXLVIII] | < 100 µM | < 100 µM | 100 to 300 µM
CCCCCCCC(=O)N[C@H](CC(N)=O)C(=O)NCCc1ccc(O)cc1O [Compound CCXXV] | < 100 µM | < 100 µM | < 100 µM
O=C(C[C@@H](NC(=O)CCC1CCCCC1)C(=O)NCCc1ccc(O)c(O)c1)NO [Compound CCLXXXIV] | < 100 µM | 100 to 300 µM | 100 to 300 µM
CCCCCCCC(=O)N[C@H](CC(N)=O)C(=O)NCCOc1c(F)cccc1F [Compound CCLV] | < 100 µM | < 100 µM | < 100 µM
NC(=O)C[C@@H](NC(=O)CCCC1CCCC1)C(=O)NCCc1ccccc1 [Compound CCLXIII] | < 100 µM | < 100 µM | < 100 µM
CCCCCCCCCCCC(=O)N[C@H](CC(N)=O)C(=O)NCCc1ccc(O)cc1 [Compound CCCVII] | < 100 µM | < 100 µM | < 100 µM
CCCCCCCC(=O)N[C@H](CC(N)=O)c1nnc(CCc2ccccc2)o1 [Compound CCXI] | 100 to 300 µM | > 300 µM | > 300 µM
CCCCCCCC(=O)N[C@H](CC(N)=O)C(=O)c1nccn1C [Compound CCLVII] | 100 to 300 µM | > 300 µM | > 300 µM
CCCCCCCC(=O)N[C@H](CC(N)=O)C(=O)NCCc1ccc(=O)[nH]c1 [Compound CCXXXV] | < 100 µM | > 300 µM | < 100 µM

Structure (SMILES) | IC50 (Full-length WT ClbP) | IC50 (ClbP [1]) | IC50 (ClbP [2])
NC(=O)C[C@@H](NC(=O)CCCC1CCCCC1)C(=O)NCCc1ccccn1 [Compound CCCIII] | < 100 µM | < 100 µM | < 100 µM
CCCCCCCC(=O)N[C@](C)(CC(N)=O)C(=O)NCCc1ccc(O)cc1 [Compound CCCXI] | > 300 µM | > 300 µM | > 300 µM
CCCCCCCC(=O)N[C@H](CC(=O)NC)C(=O)NCCc1ccc(O)cc1 [Compound CCXLVI] | < 100 µM | 100 to 300 µM | < 100 µM
CCCCCCCC(=O)N[C@H](CC(N)=O)C(=O)NCCc1ccc(C)cc1 [Compound CXCVI] | < 100 µM | < 100 µM | < 100 µM
CCCCCCCC(=O)N[C@H](CC(=O)NO)C(=O)NCCc1ccc(O)c(O)c1 [Compound CCXCIII] | < 100 µM | < 100 µM | < 100 µM
NC(=O)C[C@@H](NC(=O)CCCCCCC(F)(F)F)C(=O)NCCc1ccc(O)cc1 [Compound CCCV] | < 100 µM | < 100 µM | < 100 µM
NC(=O)C[C@@H](NC(=O)CCCC1CCNCC1)C(=O)NCCc1ccc(O)cc1 [Compound CCLII] | 100 to 300 µM | > 300 µM | > 300 µM
O=C(C[C@@H](NC(=O)CCCC1CCCC1)C(=O)NCCc1ccc(O)cc1)NO [Compound CCXCIX] | < 100 µM | < 100 µM | < 100 µM
NC(=O)C[C@@H](NC(=O)/C=C/CC1CCCCCC1)C(=O)NCCc1ccccc1 [Compound CCXXXVIII] | < 100 µM | < 100 µM | < 100 µM
CCCCCCCC(=O)N[C@H](CC(N)=O)C(=O)NCCc1ccco1 [Compound CCXXXI] | < 100 µM | < 100 µM | < 100 µM
NC(=O)C[C@@H](NC(=O)CCCC1CCCCC1)C(=O)NCCc1ccccc1 [Compound CCLXX] | < 100 µM | < 100 µM | < 100 µM
CCCCCCCC(=O)N[C@H](CC(N)=O)C(=O)NCCc1cccnc1 [Compound CCXXX] | < 100 µM | < 100 µM | < 100 µM
CN1CCC(CCCC(=O)N[C@H](CC(N)=O)C(=O)NCCc2ccc(O)cc2)CC1 [Compound CCCVIII] | > 300 µM | > 300 µM | < 100 µM
CCCCCCCC(=O)N[C@H](CC(N)=O)C(=O)NCCc1ccc(Cl)cc1 [Compound CXCIV] | < 100 µM | < 100 µM | < 100 µM
CNCCCCCC(=O)N[C@H](CC(N)=O)C(=O)NCCc1ccc(O)cc1 [Compound CCC] | > 300 µM | > 300 µM | > 300 µM
NC(=O)C[C@@H](NC(=O)CCCc1ccc(O)cc1)C(=O)NCCc1ccc(O)cc1 [Compound CCLIII] | < 100 µM | < 100 µM | < 100 µM
CCCCCCCCCC(=O)N[C@H](CC(N)=O)C(=O)NCCc1ccccn1 [Compound CCCIX] | < 100 µM | < 100 µM | < 100 µM

From patent US20230234917A1, “ASPARAGINE DERIVATIVES AND METHODS OF USING SAME” (priority 2020, published 2023)
